According to paper PMC6202471 (CPT: Pharmacometrics & Systems Pharmacology, 2018):
Like-named read-outs stand apart in the source and are kept apart here.

Assays:
[1] = cited from earlier work; for AUC, NCA results: trapezoidal rule with extrapolation to infinity
[2] = cited from earlier work; for f u,GW, unbound drug fraction in the gut wall: fixed to 1
[3] = Semimechanistic population pharmacokinetic model; settings: for CLINT,H, intrinsic hepatic clearance, SIR median: SIR 20,000 samples, 2,000 resamples; for CLINT,H, intrinsic hepatic clearance, SIR median / CLINT,GW, intrinsic gut wall clearance, SIR median / Q PER1, central to first peripheral compartment clearance, SIR median / V C, volume of central compartment, SIR median / V PER1, volume of first peripheral compartment, SIR median / V C, volume of central compartment, NONMEM mean θ estimate / V PER1, volume of first peripheral compartment, NONMEM mean θ estimate: norketamine values apparent; for CLINT,GW, intrinsic gut wall clearance, NONMEM mean θ estimate / CLINT,H, intrinsic hepatic clearance, NONMEM mean θ estimate: norketamine values apparent (F met set to 1)
[4] = cited from earlier work; for K a,TIC, absorption rate constant, fixed to a published value: FIXED in the model
[5] = biological target: T1, CYP2B6 (Homo sapiens, UniProt P20813); settings: after administration of ticlopidine
T1 sequence (P20813 1-491): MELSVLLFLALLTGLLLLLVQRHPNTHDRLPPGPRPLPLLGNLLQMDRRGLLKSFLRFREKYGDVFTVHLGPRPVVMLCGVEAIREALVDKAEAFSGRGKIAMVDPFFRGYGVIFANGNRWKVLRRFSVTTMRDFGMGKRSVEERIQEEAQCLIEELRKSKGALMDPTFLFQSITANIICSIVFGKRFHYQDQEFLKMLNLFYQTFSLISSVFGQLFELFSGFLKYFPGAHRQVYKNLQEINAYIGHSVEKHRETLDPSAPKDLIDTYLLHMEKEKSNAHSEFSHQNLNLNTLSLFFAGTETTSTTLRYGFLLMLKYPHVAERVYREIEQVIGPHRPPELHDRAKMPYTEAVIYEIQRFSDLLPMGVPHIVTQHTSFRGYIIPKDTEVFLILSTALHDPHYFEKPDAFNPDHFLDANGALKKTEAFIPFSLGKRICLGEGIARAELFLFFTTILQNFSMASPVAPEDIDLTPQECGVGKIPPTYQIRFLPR

[6] = biological target: T1, CYP2B6; settings: in vitro study; cited from earlier work
[7] = S-ketamine p.o. ticlopidine-phase

Row | Compound | f u,GW, unbound drug fraction in the gut wall [2] | CLINT,H, intrinsic hepatic clearance, SIR median [3] | CLINT,GW, intrinsic gut wall clearance, SIR median ([3]; SIR) | Q PER1, central to first peripheral compartment clearance, SIR median ([3]; SIR) | V C, volume of central compartment, SIR median ([3]; SIR) | V PER1, volume of first peripheral compartment, SIR median ([3]; SIR) | Interindividual variability on CLINT,H, NONMEM estimate ([3]; exponential IIV model) | Interindividual variability on CLINT,H, SIR median ([3]; exponential IIV model, SIR) | V C, volume of central compartment, NONMEM mean θ estimate ([3]; final model) | V PER1, volume of first peripheral compartment, NONMEM mean θ estimate ([3]; final model) | CLINT,GW, intrinsic gut wall clearance, NONMEM mean θ estimate ([3]; final model) | CLINT,H, intrinsic hepatic clearance, NONMEM mean θ estimate ([3]; final model) | C max, NCA results ([1]; S-ketamine i.v. placebo-phase) | C max, NCA results ([1]; S-ketamine p.o. placebo-phase) | AUC, NCA results ([1]; S-ketamine p.o. placebo-phase) | C max, NCA results [1, 7] | AUC, NCA results [1, 7] | other results
1 | CCC(C)n1ncn(-c2ccc(N3CCN(c4ccc(OCC5COC(Cn6cncn6)(c6ccc(Cl)cc6Cl)O5)cc4)CC3)cc2)c1=O (stereo not drawn) [Itraconazole] | – | – | – | – | – | – | – | – | – | – | – | – | – | – | – | – | – | Effect on plasma concentrations of orally administered S-ketamine ([1]; CYP3A inhibitor pretreatment, healthy volunteers): no significant effect
2 | NC1(c2ccccc2Cl)CCCCC1=O (stereo not drawn) [Norketamine, norketamine] | 1 | 73.4 L/h | 46.5 L/h | 20.1 L/h | 88 L | 88.8 L | 0.10 | 0.10 | 88.4 L | 88.9 L | 44.4 L/h | 73.5 L/h | 0.014 µg/mL | 0.061 µg/mL | 0.292 µg·h/mL | 0.046 µg/mL | 0.31 µg·h/mL | f u,NK, unbound drug fraction in the blood ([2]; norketamine): 0.50
3 | CN[C@]1(c2ccccc2Cl)CCCCC1=O [S‐ketamine] | 1 | 304 L/h | 1.22 L/h | 288 L/h | 14.4 L | 102 L | 0.25 | 0.26 | 14.4 L | 102 L | 1.19 L/h | 301 L/h | 0.032 µg/mL | 0.0099 µg/mL | 0.021 µg·h/mL | 0.017 µg/mL | 0.054 µg·h/mL | f u,SK, unbound drug fraction in the blood ([2]; S-ketamine): 0.70; K a, absorption rate constant, SIR median ([3]; SIR): 1.78 h⁻¹; Q PER2, central to second peripheral compartment clearance, SIR median ([3]; SIR): 22.3 L/h; V PER2, volume of second peripheral compartment, SIR median ([3]; SIR): 180 L; Interindividual variability on CLINT,GW, NONMEM estimate ([3]; exponential IIV model): 2.1; Interindividual variability on K a, NONMEM estimate ([3]; exponential IIV model): 0.42; Interindividual variability on V PER1, NONMEM estimate ([3]; exponential IIV model): 0.045; Interindividual variability on CLINT,GW, SIR median ([3]; exponential IIV model, SIR): 2.0; Interindividual variability on K a, SIR median ([3]; exponential IIV model, SIR): 0.44; Interindividual variability on V PER1, SIR median ([3]; exponential IIV model, SIR): 0.046; K a, absorption rate constant, NONMEM mean θ estimate ([3]; final model): 1.76 h⁻¹; V PER2, volume of second peripheral compartment, NONMEM mean θ estimate ([3]; final model): 180 L; Total hepatic clearance of S-ketamine ([3]; placebo phase, well-stirred model): 71 L/h; Share of S-ketamine metabolized to norketamine in vivo [4]: ~ 80%; F met, true value for S-ketamine to norketamine metabolism ([4]; humans, set to 1 in the model): b Should be considered as apparent rather than absolute values, as F met was set to 1 but true value of F met = 0.80 in humans for S‐ketamine to norketamine metabolism.; Intrinsic hepatic clearance of S-ketamine [5]: 113 L/h; Total hepatic clearance of S-ketamine ([5]; well-stirred model): 60 L/h
4 | Clc1ccccc1CN1CCc2sccc2C1 [Ticlopidine, ticlopidine] | 1 | – | – | – | 50.8 L | 208.7 L | – | – | 50.3 L | 191 L | – | – | – | – | – | – | – | K a,TIC, absorption rate constant, fixed to a published value [4]: 3.3 (FIXED) /h; K a,TIC, absorption rate constant, fixed to a published value ([4]; listed as ticlopidine): 3.3 h⁻¹; Ticlopidine half-life after multiple dosing [4]: increased
5 | CNC1(c2ccccc2Cl)CCCCC1=O (stereo not drawn) [ketamine] | – | – | – | – | – | – | – | – | – | – | – | – | – | – | – | – | – | Fraction of ketamine metabolized by hepatic CYP2B6 [6]: around 60%; Bioavailability after oral administration ([4]; extensive first-pass metabolism): ~ 17%
